Measurements as given in US20070089847A1, “Anti-microbial paper products having a substituted 1,2-dihydroquinoline” (Novus International, Inc., priority 2005, published 2007).
Counter-ions that a name gives are not always drawn.

Tested on: Aspergillus niger ATCC 9642 and Aspergillus flavus ATCC 9643
Test: In vitro disk assay of antifungal properties, agar plates containing test agent (Example 3)
Assay type: cell-based
Settings: 48 hours at 25° C.
Description: In this assay, paper disks were soaked in a fungal solution and placed on the surface of agar plates containing different concentration of the test agent. The radius of fungal growth radiating from each disk was considered indicative of the degree of inhibition by the agent relative to a control.
The test agents were diluted in DMSO or water and tested at several different concentrations. The test agents were added to the agar solution after sterilization, but prior to solidification. […] The plates were incubated for 48 hours at 25° C. The zones of fungal growth (or no growth) were analyzed and the minimum total inhibitory concentration (%) was estimated for each agent.

Compound	Minimum Total Inhibitory Concentration (%)
CSCCC(O)C(=O)O (centres unmarked) [2-hydroxy-4(methylthio)butanoic acid]	>0.5%
CC(=O)C(C)O (centres unmarked) [3-Hydroxy-2-Butanone]	>0.5%
O=C(O)CCO [3-Hydroxypropionic Acid]	>0.5%
CC=O [Acetaldehyde]	>0.2%
CC(=O)O [Acetic Acid]	0.2%
O=C(O)CCCCC(=O)O [Adipic Acid]	>0.5%
O=C(O)CCCCC1CCSS1 (stereo not drawn) [Alpha Lipoic Acid]	0.1%
CC(=O)Oc1c(C)c(C)c2c(c1C)CCC(C)(CCC[C@H](C)CCC[C@H](C)CCCC(C)C)O2 (stereo partly drawn) [Alpha Tocopherol Acetate]	>0.5%
Cc1c(C)c2c(c(C)c1O)CC[C@@](C)(CCC[C@H](C)CCC[C@H](C)CCCC(C)C)O2 [Alpha Tocopherol]	>0.5%
O=C1O[C@H]([C@@H](O)CO)C(O)=C1O [Ascorbic Acid]	>0.5%
CCCCCCCCCCCCCCCC(=O)OC[C@H](O)[C@H]1OC(=O)C(O)=C1O [Ascorbyl Palmitate]	>0.5%
COc1ccc(O)c(C(C)(C)C)c1 [BHA (Butylated HydroxyAnisole), Butylated HydroxyAnisole]	0.025%
Cc1cc(C(C)(C)C)c(O)c(C(C)(C)C)c1 [BHT (Butylated HydroxyToluene), Butylated HydroxyToluene]	>0.5%
O=Cc1ccccc1 [Benzaldehyde]	0.5%
O=C(O)c1ccccc1 [Benzoic Acid]	0.1%
O=C1CCO1 [Beta-Propiolactone]	0.1%
OB(O)O [Boric Acid]	0.5%
CCCC(=O)O [Butyric Acid]	0.2%
CC(=O)[O-].CC(=O)[O-].[Ca+2] [Calcium Acetate]	>0.5%
CCC(=O)[O-].CCC(=O)[O-].[Ca+2] [Calcium Propionate]	>0.5%
C=C(C)C1CC=C(C)C(=O)C1 (centres unmarked) [Carvone]	0.1%
O=CC=Cc1ccccc1 [Cinnamaldehyde]	<0.005%
CC(C)=CCCC(C)=CC=O [Citral]	0.1%
O=C(O)CC(O)(CC(=O)O)C(=O)O [Citric Acid]	>0.5%
O=S(=O)([O-])[O-].[Cu+2] [Copper Sulfate]	0.05%
N[C@@H](CS)C(=O)O [Cysteine]	>0.5%
CCCCCCCCCC=O [Decanal]	>0.5%

Compound	Minimum Total Inhibitory Concentration (%)
CC(=O)C1C(=O)C=C(C)OC1=O (centres unmarked) [Dehydroacetic Acid]	0.01%
Cc1cc(O)cc2c1O[C@](C)(CCC[C@H](C)CCC[C@H](C)CCCC(C)C)CC2 [Delta Tocopherol]	>0.5%
CC(=O)C(C)=O [Diacetyl]	0.1%
CCCCCCCCCCCCOC(=O)CCSCCC(=O)OCCCCCCCCCCCC [Dilauryl Thiodipropionate]	>0.5%
CCCCCCCCCCCCOC(=O)c1cc(O)c(O)c(O)c1 [Dodecyl Gallate]	>0.5%
O=C(O)CN(CCN(CC(=O)O)CC(=O)O)CC(=O)O [EDTA]	0.02%
CCO [Ethanol]	>0.5%
C=CCc1ccc(O)c(OC)c1 [Eugenol]	0.05%
O=C(O)/C=C/C(=O)O [Fumaric Acid]	>0.5%
O=C(O)c1cc(O)c(O)c(O)c1 [Gallic Acid]	>0.5%
O=C(O)[C@H](O)[C@@H](O)[C@H](O)[C@H](O)CO [Gluconic Acid]	>0.5%
NCC(=O)O [Glycine]	>0.5%
O=C(O)CO [Glycolic Acid]	>0.5%
Cl [HCl]	0.5%
CCCCCCCCCCCCCCCC[n+]1ccccc1.[Cl-] [Hexadecylpyridinium Cl]	0.2%
OO [Hydrogen Peroxide]	0.1%
CC(O)C(=O)O (centres unmarked) [Lactic Acid]	>0.5%
C=C(C)[C@H]1CC=C(C)CC1 [Limonene]	>0.5%
NCCCC[C@H](N)C(=O)O [Lysine]	>0.5%
O=C(O)/C=C\C(=O)O [Maleic Acid]	0.5%
O=C(O)CC(=O)O [Malonic Acid]	>0.5%
CSCC[C@H](N)C(=O)O [Methionine]	>0.5%
COC(=O)c1ccc(O)cc1 [Methyl Paraben]	0.5%
CCCCCCCCOC(=O)c1cc(O)c(O)c(O)c1 [Octyl Gallate]	>0.5%
O=P(O)(O)O [Phosphoric Acid]	0.5%
O=Cc1ccc2c(c1)OCO2 [Piperonal]	0.1%
CC(=O)[O-].[K+] [Potassium Acetate]	>0.5%

Compound	Minimum Total Inhibitory Concentration (%)
O=C([O-])c1ccccc1.[K+] [Potassium Benzoate]	>0.5%
C/C=C/C=C/C(=O)[O-].[K+] [Potassium Sorbate]	>0.5%
CCC(=O)O [Proprionic Acid]	0.2%
CCCOC(=O)c1cc(O)c(O)c(O)c1 [Propyl Gallate]	>0.5%
CCCOC(=O)c1ccc(O)cc1 [Propyl Paraben]	0.015%
CC(=O)[O-].[Na+] [Sodium Acetate]	>0.5%
O=C([O-])c1ccccc1.[Na+] [Sodium Benzoate]	>0.5%
O=S([O-])O.[Na+] [Sodium Bisulfite]	0.2%
O=C([O-])CC(O)(CC(=O)[O-])C(=O)[O-].[Na+].[Na+].[Na+] [Sodium Citrate]	>0.5%
CC(=O)O.CC(=O)[O-].[Na+] [Sodium Diacetate]	0.5%
O=C([O-])[C@H](O)[C@@H](O)[C@H](O)[C@H](O)CO.[Na+] [Sodium Gluconate]	>0.5%
O=P1([O-])OP(=O)([O-])OP(=O)([O-])OP(=O)([O-])OP(=O)([O-])OP(=O)([O-])O1.[Na+].[Na+].[Na+].[Na+].[Na+].[Na+] [Sodium Hexametaphosphate]	>0.5%
CC(O)C(=O)[O-].[Na+] (centres unmarked) [Sodium Lactate]	>0.5%
O=S([O-])S(=O)(=O)[O-].[Na+].[Na+] [Sodium Metabisulfite]	0.1%
CCC(=O)[O-].[Na+] [Sodium Proprionate]	>0.5%
O=P([O-])([O-])OP(=O)([O-])[O-].[Na+].[Na+].[Na+].[Na+] [Sodium Pyrophosphate]	>0.5%
O=S([O-])[O-].[Na+].[Na+] [Sodium Sulfite]	>0.5%
O=S([O-])([O-])=S.[Na+].[Na+] [Sodium Thiosulfate]	>0.5%
O=P([O-])(O)O.[Na+] [Sodium bi-Phosphate]	>0.5%
O=S(=O)(O)O [Sulfuric Acid]	0.1%
CC(C)(C)c1cc(O)ccc1O [TBHQ (Tert-ButylHydroQuinone), Tert-ButylHydroQuinone]	0.1%
O=C(O)C(O)C(O)C(=O)O (centres unmarked) [Tartaric Acid]	>0.5%
N[C@@H](Cc1c[nH]c2ccccc12)C(=O)O [Tryptophan]	>0.5%
CCCCC(=O)O [Valeric Acid]	0.1%
COc1cc(C=O)ccc1O [Vanillin]	0.1%
Stearyl Citrate	>0.5%
